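Briefly, cells in 96-well plates were exposed to five compound concentrations for 48 h, and endpoints were estimated by linear interpolation. GI50: concentration for 50% inhibition of growth. At the TGI there is no net growth.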

The test system of one assay is NCI-H460 lung. Description: NCI tumour cell line growth inhibition, 48 h.
Turning to `Fc1ccc2[nH]cc(Cc3c[nH]c4ccc(F)cc34)c2c1`, the GI50 is 25.3 µM and the TGI is over 100 µM.

With `O=C(CCN1CCCC1)Nc1ccc2c(NCc3ccc(F)cc3)c3ccccc3nc2c1`, the GI50 was 0.336 µM and the TGI was 1.15 µM.

Consider `C=C1C(=O)O[C@@H]2C1CC(=O)C(C)CC/C=C(\C)CCC[C@H](C)[C@H]2OC(C)=O` (stereo not given in full), for which the GI50 was 21.2 µM and the TGI came to 43.6 µM.

For `CSc1nnc(CCSc2ccnc3c(C(F)(F)F)cccc23)o1`, the GI50 was over 100 µM and the TGI is over 100 µM.

For the compound `N#CC(C#N)=Cc1ccc(-c2ccc(-c3nc4ccccc4s3)cc2)o1`, the GI50 is 30.1 µM and the TGI was over 100 µM.

In the case of `Fc1ccc(-c2nc3n(c2-c2ccncc2)CCS3)cc1`, the GI50 is over 25 µM and the TGI was over 25 µM.

The subject of another assay is BT-549 breast. Description: NCI tumour cell line growth inhibition, 48 h.
Take `Fc1ccc2[nH]cc(Cc3c[nH]c4ccc(F)cc34)c2c1`: the GI50 was 13.9 µM and the TGI came out at 30.3 µM.

With `O=C(CCN1CCCC1)Nc1ccc2c(NCc3ccc(F)cc3)c3ccccc3nc2c1`, the GI50 is 1.2 µM and the TGI was determined as 2.67 µM.

As for `C=C1C(=O)O[C@@H]2C1CC(=O)C(C)CC/C=C(\C)CCC[C@H](C)[C@H]2OC(C)=O` (stereo not given in full), the GI50 was 13 µM and the TGI turned out to be 30.2 µM.

On to `CSc1nnc(CCSc2ccnc3c(C(F)(F)F)cccc23)o1`, for which the GI50 is 31.4 µM and the TGI is over 100 µM.

Take `N#CC(C#N)=Cc1ccc(-c2ccc(-c3nc4ccccc4s3)cc2)o1`: the GI50 was 32.9 µM and the TGI was determined as 96.1 µM.

Regarding `Fc1ccc(-c2nc3n(c2-c2ccncc2)CCS3)cc1`, the GI50 is over 25 µM and the TGI was over 25 µM.

Another assay deals with LOX IMVI melanoma. The experiment in a line: NCI tumour cell line growth inhibition, 48 h.
In the case of `Fc1ccc2[nH]cc(Cc3c[nH]c4ccc(F)cc34)c2c1`, the GI50 was 16 µM and the TGI turned out to be 47.1 µM.

For `O=C(CCN1CCCC1)Nc1ccc2c(NCc3ccc(F)cc3)c3ccccc3nc2c1`, the GI50 was 0.38 µM and the TGI worked out at 1.48 µM.

In the case of `C=C1C(=O)O[C@@H]2C1CC(=O)C(C)CC/C=C(\C)CCC[C@H](C)[C@H]2OC(C)=O` (stereo not given in full), the GI50 is 2.15 µM and the TGI was found to be 6.22 µM.

With `CSc1nnc(CCSc2ccnc3c(C(F)(F)F)cccc23)o1`, the GI50 is over 100 µM and the TGI is over 100 µM.

Turning to `N#CC(C#N)=Cc1ccc(-c2ccc(-c3nc4ccccc4s3)cc2)o1`, the GI50 was 15.1 µM and the TGI amounted to 30.3 µM.

`Fc1ccc(-c2nc3n(c2-c2ccncc2)CCS3)cc1`: the GI50 is over 25 µM and the TGI was over 25 µM.

A further assay relates to CAKI-1 renal. Description: NCI tumour cell line growth inhibition, 48 h.
For the compound `Fc1ccc2[nH]cc(Cc3c[nH]c4ccc(F)cc34)c2c1`, the GI50 was 12.1 µM and the TGI was 34.3 µM.

For `O=C(CCN1CCCC1)Nc1ccc2c(NCc3ccc(F)cc3)c3ccccc3nc2c1`, the GI50 was 1.42 µM and the TGI stood at 5.42 µM.

For the compound `C=C1C(=O)O[C@@H]2C1CC(=O)C(C)CC/C=C(\C)CCC[C@H](C)[C@H]2OC(C)=O` (stereo not given in full), the GI50 was 11.9 µM and the TGI came to 24.4 µM.

Regarding `CSc1nnc(CCSc2ccnc3c(C(F)(F)F)cccc23)o1`, the GI50 was 31.8 µM and the TGI is over 100 µM.

As to `N#CC(C#N)=Cc1ccc(-c2ccc(-c3nc4ccccc4s3)cc2)o1`, the GI50 is 25 µM and the TGI was over 100 µM.

Turning to `Fc1ccc(-c2nc3n(c2-c2ccncc2)CCS3)cc1`, the GI50 is over 25 µM and the TGI is over 25 µM.

Another assay relates to UACC-62 melanoma. Description: NCI tumour cell line growth inhibition, 48 h.
For `Fc1ccc2[nH]cc(Cc3c[nH]c4ccc(F)cc34)c2c1`, the GI50 was 12 µM and the TGI was 28.3 µM.

Take `O=C(CCN1CCCC1)Nc1ccc2c(NCc3ccc(F)cc3)c3ccccc3nc2c1`: the GI50 was 0.827 µM and the TGI amounted to 2.16 µM.

As to `C=C1C(=O)O[C@@H]2C1CC(=O)C(C)CC/C=C(\C)CCC[C@H](C)[C@H]2OC(C)=O` (stereo not given in full), the GI50 was 11.6 µM and the TGI was found to be 24.5 µM.

Consider `CSc1nnc(CCSc2ccnc3c(C(F)(F)F)cccc23)o1`, for which the GI50 was over 100 µM and the TGI was over 100 µM.

Consider `N#CC(C#N)=Cc1ccc(-c2ccc(-c3nc4ccccc4s3)cc2)o1`, for which the GI50 was 21.7 µM and the TGI is 70.3 µM.

`Fc1ccc(-c2nc3n(c2-c2ccncc2)CCS3)cc1`: the GI50 is over 25 µM and the TGI is over 25 µM.

The next assay concerns DU-145 prostate. The experiment in a line: NCI tumour cell line growth inhibition, 48 h.
For the compound `Fc1ccc2[nH]cc(Cc3c[nH]c4ccc(F)cc34)c2c1`, the GI50 is 27.8 µM and the TGI is 85.7 µM.

Consider `O=C(CCN1CCCC1)Nc1ccc2c(NCc3ccc(F)cc3)c3ccccc3nc2c1`, for which the GI50 was 0.368 µM and the TGI stood at 1.54 µM.

In the case of `C=C1C(=O)O[C@@H]2C1CC(=O)C(C)CC/C=C(\C)CCC[C@H](C)[C@H]2OC(C)=O` (stereo not given in full), the GI50 was 15 µM and the TGI is 31.7 µM.

Turning to `CSc1nnc(CCSc2ccnc3c(C(F)(F)F)cccc23)o1`, the GI50 is over 100 µM and the TGI was over 100 µM.

Take `N#CC(C#N)=Cc1ccc(-c2ccc(-c3nc4ccccc4s3)cc2)o1`: the GI50 was 18.2 µM and the TGI worked out at 78.2 µM.

Turning to `Fc1ccc(-c2nc3n(c2-c2ccncc2)CCS3)cc1`, the GI50 was over 25 µM and the TGI is over 25 µM.

The test system of the next assay is SNB-75 CNS. Description: NCI tumour cell line growth inhibition, 48 h.
As for `Fc1ccc2[nH]cc(Cc3c[nH]c4ccc(F)cc34)c2c1`, the GI50 is 29 µM and the TGI was found to be 85.6 µM.

Regarding `O=C(CCN1CCCC1)Nc1ccc2c(NCc3ccc(F)cc3)c3ccccc3nc2c1`, the GI50 was 0.506 µM and the TGI is 1.87 µM.

As to `C=C1C(=O)O[C@@H]2C1CC(=O)C(C)CC/C=C(\C)CCC[C@H](C)[C@H]2OC(C)=O` (stereo not given in full), the GI50 is 14.9 µM and the TGI was 29.8 µM.

Consider `CSc1nnc(CCSc2ccnc3c(C(F)(F)F)cccc23)o1`, for which the GI50 is 19.6 µM and the TGI was over 100 µM.

For `N#CC(C#N)=Cc1ccc(-c2ccc(-c3nc4ccccc4s3)cc2)o1`, the GI50 was 25.3 µM and the TGI was 60 µM.

For `Fc1ccc(-c2nc3n(c2-c2ccncc2)CCS3)cc1`, the GI50 was over 25 µM and the TGI was over 25 µM.

The test system of another assay is OVCAR-4 ovarian. The experiment in a line: NCI tumour cell line growth inhibition, 48 h.
On to `Fc1ccc2[nH]cc(Cc3c[nH]c4ccc(F)cc34)c2c1`, for which the GI50 was 32 µM and the TGI is over 100 µM.

With `O=C(CCN1CCCC1)Nc1ccc2c(NCc3ccc(F)cc3)c3ccccc3nc2c1`, the GI50 is 0.45 µM and the TGI was 1.84 µM.

Turning to `C=C1C(=O)O[C@@H]2C1CC(=O)C(C)CC/C=C(\C)CCC[C@H](C)[C@H]2OC(C)=O` (stereo not given in full), the GI50 was 15.2 µM and the TGI turned out to be 32 µM.

Turning to `CSc1nnc(CCSc2ccnc3c(C(F)(F)F)cccc23)o1`, the GI50 was 40.7 µM and the TGI is over 100 µM.

In the case of `N#CC(C#N)=Cc1ccc(-c2ccc(-c3nc4ccccc4s3)cc2)o1`, the GI50 was 30.5 µM and the TGI is over 100 µM.

With `Fc1ccc(-c2nc3n(c2-c2ccncc2)CCS3)cc1`, the GI50 was 9.67 µM and the TGI was over 25 µM.

The subject of the next assay is HCT-116 colon. The experiment in a line: NCI tumour cell line growth inhibition, 48 h.
As to `Fc1ccc2[nH]cc(Cc3c[nH]c4ccc(F)cc34)c2c1`, the GI50 is 17.8 µM and the TGI was 43.3 µM.

Consider `O=C(CCN1CCCC1)Nc1ccc2c(NCc3ccc(F)cc3)c3ccccc3nc2c1`, for which the GI50 is 0.313 µM and the TGI was 1.35 µM.

`C=C1C(=O)O[C@@H]2C1CC(=O)C(C)CC/C=C(\C)CCC[C@H](C)[C@H]2OC(C)=O` (stereo not given in full): the GI50 is 1.62 µM and the TGI turned out to be 3.62 µM.

`CSc1nnc(CCSc2ccnc3c(C(F)(F)F)cccc23)o1`: the GI50 is 66.5 µM and the TGI was over 100 µM.

Take `N#CC(C#N)=Cc1ccc(-c2ccc(-c3nc4ccccc4s3)cc2)o1`: the GI50 is 5.11 µM and the TGI amounted to 24.9 µM.

Consider `Fc1ccc(-c2nc3n(c2-c2ccncc2)CCS3)cc1`, for which the GI50 was over 25 µM and the TGI is over 25 µM.

The subject of another assay is HOP-62 NSCLC. The experiment in a line: NCI tumour cell line growth inhibition, 48 h.
As for `Fc1ccc2[nH]cc(Cc3c[nH]c4ccc(F)cc34)c2c1`, the GI50 is 19.6 µM and the TGI is 40.9 µM.

On to `O=C(CCN1CCCC1)Nc1ccc2c(NCc3ccc(F)cc3)c3ccccc3nc2c1`, for which the GI50 is 0.611 µM and the TGI came to 2.62 µM.

Consider `C=C1C(=O)O[C@@H]2C1CC(=O)C(C)CC/C=C(\C)CCC[C@H](C)[C@H]2OC(C)=O` (stereo not given in full), for which the GI50 is 18.2 µM and the TGI was 33.3 µM.

As to `CSc1nnc(CCSc2ccnc3c(C(F)(F)F)cccc23)o1`, the GI50 is 51.7 µM and the TGI was over 100 µM.

Consider `N#CC(C#N)=Cc1ccc(-c2ccc(-c3nc4ccccc4s3)cc2)o1`, for which the GI50 was 11.4 µM and the TGI came to 44.2 µM.

With `Fc1ccc(-c2nc3n(c2-c2ccncc2)CCS3)cc1`, the GI50 was over 25 µM and the TGI was over 25 µM.

These data come from PubChem BioAssay (NCI).
